Experimental data reported in patent US10407445B2, “Hepatitis C virus inhibitors” (ENANTA PHARMACEUTICALS, INC., priority 2013, dated 2019).
Where two headings read alike, the source gives them in different places.

Columns and labels:
Format in all cases: cell-based
HCV GT 1b replicon = assay: HCV replicon assay, stable GT 1b replicon (Renilla luciferase); details: Hepatitis C virus, GT1B, 72 h
Protocol: (§1) The activity of compounds was determined against HCV replicons representing genotypes (GT) 1a, 1b, 2a, and 3a. To generate stable Huh-7.5-based cell lines, HCV replicons were engineered to express the Renilla luciferase reporter (hRluc) fused to the neomycin phosphotransferase (Neo) gene. GT2a and GT3a HCV replicons were based on the JFH-1 subgenomic replicon (Kato et al. 2003 Gastroenterology, 125:1808-1817), in which the NS5A gene was replaced with that of strains J6 and S52 (GT2a and G3a, respectively). The activity of compounds against GT1a replicons encoding NS5A mutations (M28T, Q30R, L31M, Y93C, and Y93H) was also determined in a transient replication assay. The parental GT1a and GT2a replicons (pH/SG-Neo(L+I) and pSG-Neo-JFH1, respectively) were licensed from Apath LLC (Saint Louis, Mo.). The parental GT 1b replicon (pFKi389lucubineo_3_3′_ET) was licensed from ReBLikon GmbH (Germany). HCV replicons were constructed by standard molecular biology techniques described below. All replicon constructs were verified by restriction enzyme digestion and DNA sequencing.
The hRluc-Neo cassette was PCR amplified from pF9 cytomegalovirus (CMV) hRluc-Neo Flexi(R) (Promega) using Accuprime Super Mix II (Invitrogen) and the following primers, which introduce restriction sites: […]
The amplification product was subcloned into pCR2.1-TOPO (Invitrogen). The resulting plasmid was digested with AscI and NotI, and the excised hRluc-Neo fragment was ligated using the Roche Quick Ligation Kit (Roche) into pFKi389lucubineo_3_3′_ET digested with the same enzymes.
Stable HCV replicon cell lines were grown in complete media (Dulbecco's modified Eagle medium [DMEM], 2 mM L-glutamine, 0.1 mM essential amino acids, 1 mM sodium pyruvate, 10% heat inactivated fetal bovine serum) with the addition 500 μg/ml […] (G418). Huh7-lunet cells were maintained in the same medium without the addition of G418. Cells were routinely passaged at a dilution of 1:4 two times a week. The assay medium for both luciferase reporter HCV replicon and cytotoxicity assays used phenol red-free DMEM and lacked G418. For each stable replicon assay, a sixteen point half-log dilution series of compound was stamped (0.5 ul compound per well) into three replica 384-well plates, to which cells were added directly (4000 cells/well). For the transient replication assay, Huh7-lunet cells in ice-cold phosphate buffered saline (PBS) were electroporated (BioRad electroporator; 950 uF, 270V) with 10 ug purified in vitro transcribed HCV replicon RNA, followed by resuspension in complete media and plating (8000 cells/well) into compound stamped 384-well plates. Luciferase activity of compound-treated cells was measured relative to DMSO-treated cells after 72 h incubation using RENILLA-GLO™ Luciferase Assay (Promega). Cytotoxicity (CC50) in the GT1b replicon cell line was analyzed using CELL TITER-GLO™ (Promega).
The compounds of the present invention can be effective against the HCV 1b genotype. It should also be understood that the compounds of the present invention can inhibit multiple genotypes of HCV. In one embodiment compound of the present invention are active against the 1a, 1b, 2a, 2b, 3a, 4a, and 5a genotypes. In another embodiment compound of the present invention are active against the HCV resistant mutants. […] EC50s are in pM against HCV GT 1a and GT 1b; and nM against GT 2a-J6, GT 3a and GT1a resistant variants (M28T, Q30R, L31V, Y93C and Y93H).

HCV GT 3a replicon = assay: HCV replicon assay, GT2a chimeric replicon expressing NS5A from GT3a strain S52; details: Hepatitis C virus
Protocol: as §1
The plasmid pSG-hRlucNeo-JFH1 was generated from pSG-Neo-JFH1 (Kato et al. 2003, Gastroentrology 125:1808-1817). A fragment containing the JFH-1 5′ NTR—hRluc-Neo gene and two unique restriction sites (AgeI and PmeI) was synthesized (Integrated DNA Technologies, Coralville, Iowa). The resulting synthetic plasmid was digested with AgeI and PmeI and the excised fragment (5′NTR-hRluc-Neo) was ligated into pSG-Neo-JFH1 digested with the same enzymes to generate pSG-hRlucNeo-JFH1. To allow expression of heterologous NS5A sequences, an NS5A shuttle vector was generated from pSG-Neo-JFH1, in which the entire coding sequence of NS5A plus the first eight codons of NS5B were replaced with an AfeI restriction site. This was done by Infusion cloning (Clontech, Mountain View, Calif.) from two PCR products that were generated using pSG-Neo-JFH1 as a template and the following primer pairs:
Underlined sequences denote regions of overlap necessary for Infusion cloning. Purified PCR products were cloned directly into an NsiI/SnaBI digested pSG-Neo-JFH1 following the manufacturer's instructions to generate pSG-Neo-JFH1-5Ashuttle. The 2023 base pair AgeI/PmeI fragment from pSG-hRlucNeo-JFH1 was then ligated into pSG-Neo-JFH1-5Ashuttle to generate pSG-hRlucNeo-JFH1-5Ashuttle. To generate the 2a-2a-(J6) and 2a-3a-(S52) NS5A chimeric replicons, the full length NS5A sequences from GT2a strain J6 (accession AF177036) and GT3a strain S52 (accession GU814263), with the addition of the first eight codons of JFH-1 NS5B (5′-TCCATGTCATACTCCTGGACCGGG-3′), were synthesized by GeneArt (Life Technologies, Carlsbad Calif.). J6 and S52 NS5A sequences were then PCR amplified from the synthetic clones using the appropriate forward primer:
Underlined sequences denote regions of overlap with pSG-hRlucNeo-JFH1-5Ashuttle necessary for Infusion cloning. Purified PCR products were directly cloned into AfeI-digested shuttle vector by Infusion cloning following the manufacturer's instructions.
Stable HCV replicon cell lines were grown in complete media (Dulbecco's modified Eagle medium [DMEM], 2 mM L-glutamine, 0.1 mM essential amino acids, 1 mM sodium pyruvate, 10% heat inactivated fetal bovine serum) with the addition 500 μg/ml […] (G418). Huh7-lunet cells were maintained in the same medium without the addition of G418. Cells were routinely passaged at a dilution of 1:4 two times a week. The assay medium for both luciferase reporter HCV replicon and cytotoxicity assays used phenol red-free DMEM and lacked G418. For each stable replicon assay, a sixteen point half-log dilution series of compound was stamped (0.5 ul compound per well) into three replica 384-well plates, to which cells were added directly (4000 cells/well). […]

[1] = tested on: GT1a replicon encoding NS5A mutation M28T; assay: Transient replication assay, GT1a replicon with NS5A mutation M28T; details: Hepatitis C virus
[2] = tested on: GT1a replicon encoding NS5A mutation L31V; assay: Transient replication assay, GT1a replicon with NS5A mutation L31V; details: Hepatitis C virus
[3] = tested on: GT1a replicon encoding NS5A mutation Y93C; assay: Transient replication assay, GT1a replicon with NS5A mutation Y93C; details: Hepatitis C virus

Row | Structure (SMILES) | EC50 (HCV GT 1b replicon) [nM] | EC50 (HCV GT 3a replicon; 72 h, read-out: EC50 3a) [nM] | EC50 ([1]; read-out: EC50 1a M28T) [nM] | EC50 ([2]; read-out: EC50 1a L31V) [nM] | EC50 ([3]; read-out: EC50 1a Y93C) [nM] | EC50 (HCV GT 3a replicon; read-out: EC50 (nM) 3a) [nM] | EC50 ([1]; read-out: EC50 (nM) 1a M28T) [nM] | EC50 ([2]; read-out: EC50 (nM) 1a L31V) [nM] | EC50 ([3]; read-out: EC50 (nM) 1a Y93C) [nM]
1 | COC(=O)N[C@H](C(=O)N1[C@H](c2nc3ccc4cc(-c5ccc(-c6cnc([C@@H]7C[C@@]8(CCCOC8)CN7C(=O)[C@@H](NC(=O)OC)C7C[C@@H](C)O[C@H](C)C7)[nH]6)cc5)ccc4c3[nH]2)C[C@@H]2CCCC[C@@H]21)C(C)C (stereo in doubt) [Compound 38] | 0.015 | 0.07 | 0.002 | 0.002 | 0.004 |  |  |  | 
2 | COC(=O)N[C@H](C(=O)N1[C@H](c2nc3ccc4cc(-c5ccc(-c6cnc([C@@H]7C[C@@]8(CCCOC8)CN7C(=O)[C@H](NC(=O)OC)C7C[C@@H](C)O[C@H](C)C7)[nH]6)cc5)ccc4c3[nH]2)C[C@@H]2CCCC[C@@H]21)C(C)C (stereo in doubt) [Compound 39] | 0.029 | 48 | 0.4 | 4 | 4 |  |  |  | 
3 | COC(=O)N[C@H](C(=O)N1C[C@]2(CCCOC2)C[C@H]1c1nc2ccc3cc(-c4ccc(-c5cnc([C@@H]6C[C@H]7C[C@H]7N6C(=O)[C@@H](NC(=O)OC)C(C)C)[nH]5)cc4)ccc3c2[nH]1)C(C)C [Compound 5] | 0.011 | 0.5 | 0.03 | 0.1 | 0.06 |  |  |  | 
4 | COC(=O)N[C@H](C(=O)N1C[C@]2(CCCOC2)C[C@H]1c1nc2ccc3cc(-c4ccc5c(ccc6nc([C@@H]7C[C@H]8C[C@H]8N7C(=O)[C@@H](NC(=O)OC)C(C)C)[nH]c65)c4)ccc3c2[nH]1)C(C)C [Compound 6] | 0.012 | 0.08 | 0.06 | 0.2 | 0.02 |  |  |  | 
5 | COC(=O)N[C@H](C(=O)N1CC2(CC2)C[C@H]1c1nc2ccc3cc(-c4ccc5c(ccc6nc([C@@H]7C[C@@]8(CCCOC8)CN7C(=O)[C@@H](NC(=O)OC)C(C)C)[nH]c65)c4)ccc3c2[nH]1)C(C)C [Compound 7] | 0.012 | 0.05 | 0.02 | 0.1 | 0.02 |  |  |  | 
6 | COC(=O)N[C@H](C(=O)N1CC2(CC2)C[C@H]1c1ncc(-c2ccc(-c3ccc4c(ccc5nc([C@@H]6C[C@@]7(CCCOC7)CN6C(=O)[C@@H](NC(=O)OC)C(C)C)[nH]c54)c3)cc2)[nH]1)C(C)C [Compound 8] | 0.01 | 0.9 | 0.06 | 0.2 | 0.1 |  |  |  | 
7 | COC(=O)N[C@H](C(=O)N1C[C@]2(CCCOC2)C[C@H]1c1nc2ccc3cc(-c4ccc5c(ccc6nc([C@@H]7C[C@@H]8CCC[C@@H]8N7C(=O)[C@@H](NC(=O)OC)C(C)C)[nH]c65)c4)ccc3c2[nH]1)C(C)C [Compound 9] | 0.006 | 0.06 | 0.03 | 0.07 | 0.03 |  |  |  | 
8 | COC(=O)N[C@H](C(=O)N1C[C@]2(CCCOC2)C[C@H]1c1nc2ccc3cc(-c4ccc(-c5cnc([C@@H]6C[C@@H]7CCC[C@@H]7N6C(=O)[C@@H](NC(=O)OC)C(C)C)[nH]5)cc4)ccc3c2[nH]1)C(C)C [Compound 10] | 0.005 | 0.2 | 0.04 | 0.05 | 0.2 |  |  |  | 
9 | COC(=O)N[C@H](C(=O)N1C[C@]2(CCCOC2)C[C@H]1c1ncc(-c2ccc(-c3ccc4c(ccc5nc([C@@H]6C[C@@]7(CCCOC7)CN6C(=O)[C@@H](NC(=O)OC)C(C)C)[nH]c54)c3)cc2)[nH]1)C(C)C [Compound 11] | 0.052 | 0.4 | 0.02 | 0.08 | 0.07 |  |  |  | 
10 | COC(=O)N[C@H](C(=O)N1C[C@]2(CCCOC2)C[C@H]1c1ncc(-c2ccc3cc4cc(-c5cnc([C@@H]6C[C@@H]7CCCC[C@@H]7N6C(=O)[C@@H](NC(=O)OC)C(C)C)[nH]5)ccc4cc3c2)[nH]1)C(C)C [Compound 13] | 0.021 | 0.9 | 0.02 | 0.8 | 0.3 |  |  |  | 
11 | COC(=O)N[C@H](C(=O)N1C[C@]2(CCCOC2)C[C@H]1c1ncc(-c2ccc3c(c2)COc2cc(-c4cnc([C@@H]5C[C@@H]6CCCC[C@@H]6N5C(=O)[C@@H](NC(=O)OC)C(C)C)[nH]4)ccc2-3)[nH]1)C(C)C [Compound 15] | 0.012 | 0.2 | 0.01 | 0.1 | 0.2 |  |  |  | 
12 | COC(=O)N[C@H](C(=O)N1C[C@]2(CCCOC2)C[C@H]1c1ncc(-c2ccc(-c3ccc4c(ccc5nc([C@@H]6C[C@@H]7CCC[C@@H]7N6C(=O)[C@@H](NC(=O)OC)C(C)C)[nH]c54)c3)cc2)[nH]1)C(C)C [Compound 16] | 0.01 | 0.8 | 0.08 | 0.3 | 0.3 |  |  |  | 
13 | COC(=O)N[C@H](C(=O)N1C[C@]2(CCCOC2)C[C@H]1c1ncc(-c2ccc3c(ccc4cc(-c5cnc([C@@H]6C[C@@H]7CCCC[C@@H]7N6C(=O)[C@@H](NC(=O)OC)C(C)C)[nH]5)ccc43)c2)[nH]1)C(C)C [Compound 17] | 0.013 | 6 | 0.008 | 0.3 | 0.3 |  |  |  | 
14 | COC(=O)N[C@H](C(=O)N1C[C@]2(CCCOC2)C[C@H]1c1ncc(-c2ccc(-c3ccc4c(ccc5nc([C@@H]6CCCN6C(=O)[C@@H](NC(=O)OC)C(C)C)[nH]c54)c3)cc2)[nH]1)C(C)C [drawing 233] |  |  |  |  |  | 0.08 | 0.2 | 1 | 0.3
